According to ChEMBL document CHEMBL1132504, “Nucleosides and nucleotides. 183. Synthesis of 4'alpha-branched thymidines as a new type of antiviral agent” (Bioorg Med Chem Lett, 1999):

Columns and labels:
[1] = test system: Human immunodeficiency virus 1; experiment: Antiviral activity against HIV-1 (human immunodeficiency virus type 1); assay type: functional, organism-based
[2] = Cytotoxicity against HIV-1 (human immunodeficiency virus type 1); assay type: functional; conditions: Human immunodeficiency virus 1
[3] = Cytotoxicity against HSV-1 (herpes simplex virus); assay type: functional; conditions: Human alphaherpesvirus 1
[4] = test system: Human alphaherpesvirus 1; experiment: Antiviral activity against HSV-1 (herpes simplex virus); assay type: functional, organism-based

SMILES: C#C[C@]1(CO)O[C@@H](n2cc(C)c(=O)[nH]c2=O)C[C@@H]1O
- EC50 [1]: 0.83 µM
- CC50 [2]: > 100 µM
- CC50 [3]: > 100 µM
- EC50 [4]: 6.8 µM

SMILES: CC[C@]1(CO)O[C@@H](n2cc(C)c(=O)[nH]c2=O)C[C@@H]1O
- EC50 [1]: 16.1 µM
- CC50 [2]: > 100 µM
- CC50 [3]: > 100 µM
- EC50 [4]: 7.4 µM

SMILES: Cc1cn([C@H]2C[C@H](O)[C@](CO)(CCO)O2)c(=O)[nH]c1=O
- EC50 [1]: > 4.7 µM
- CC50 [2]: 4.7 µM
- CC50 [3]: > 100 µM
- EC50 [4]: > 100 µM

SMILES: Cc1cn([C@H]2C[C@@H]3OCC[C@]3(CO)O2)c(=O)[nH]c1=O
- EC50 [1]: > 100 µM
- CC50 [2]: > 100 µM
- CC50 [3]: > 100 µM
- EC50 [4]: > 100 µM

SMILES: C=C[C@]1(CO)O[C@@H](n2cc(C)c(=O)[nH]c2=O)C[C@@H]1O
- EC50 [1]: 6.1 µM
- CC50 [2]: > 100 µM
- CC50 [3]: > 100 µM
- EC50 [4]: 1.9 µM

SMILES: Nc1nc2c(ncn2COCCO)c(=O)[nH]1 [ACYCLOVIR]
- CC50 [3]: > 100 µM

SMILES: Cc1cn([C@H]2C[C@H](N=[N+]=[N-])[C@@H](CO)O2)c(=O)[nH]c1=O [ZIDOVUDINE]
- EC50 [1]: 0.0017 µM
- CC50 [2]: 16.5 µM
